Experimental data taken from patent US20250145637A1, “SULFONAMIDE DERIVATIVE, PREPARATION METHOD THEREFOR AND MEDICAL USE THEREOF” (Jiangsu Hengrui Pharmaceuticals Co. Ltd., priority 2021, published 2025).

Test system: ZR-75-1
Test: ZR-75-1 proliferation assay (CellTiter-Glo, day 14)
Format: cell-based
Conditions: Homo sapiens, 336 h, CTG assay day 14; for IC50: ZR-75-1 proliferation; for Emax: inhibition of ZR-75-1 proliferation, read-out: Maximum inhibition rate/Imax %
Excerpt: Test Example 4: ZR-75-1 Proliferation Assay
I. Reagents and Instruments
• 1. ZR-75-1 (ATCC CRL1500) • 2. 1640 medium (Gibco, 22400-089) • 3. 0.25% trypsin-EDTA (1×) (Gibco, 25200-072) • 4. Penicillin-streptomycin (Gibco, 15140-122) • 5. DPBS (1×) (Gibco, 14190-144) • 6. FBS (Gibco, 10091148) • 7. Assay plate, 96-well, black with clear bottom (Corning, 3603) • 8. 96-well non-treated round-bottom plate (JET BIOFIL, TCP-002-096) • 9. CellTiter-Glo buffer (Promega, G756B) • 10. CellTiter-Glo substrate (Promega, G755B) • 11. Automatic cell counter (Countstar, IC1000) • 12. Thermostatic incubator (Thermo, 1160) • 13. PHERAstar FS (BMG labtech, PHERAstar FS)
a. The state of cells was observed under a microscope to make sure that the cell confluence was about 90%.
b. The cell supernatant was discarded. The cells were rinsed with DPBS once, and the DPBS was removed. The cells were digested with a proper amount of trypsin and left to stand at 37° C. for 5 min.
c. The digestion was stopped with an equal volume of 1640 medium containing 10% FBS, and the cell suspension was collected and centrifuged at 300 g for 3 min. The cells were suspended in a proper amount of fresh medium.
d. The resulting cell suspension was collected and cell counting was performed.
e. The cell suspension was diluted to 5×10^4/mL, 50 μL/well with 1640 medium containing 10% FBS. Each well contained 2500 ZR-75-1 cells.
f. The cell culture plates were incubated overnight in a 37° C., 5% carbon dioxide incubator.
2. Compound Addition (Day 1)
a. Each compound was serially diluted in DMSO to 9 concentration points (initial concentration of 100 μM, 3-fold dilution; the highest concentration of each compound may be adjusted depending on its IC50). For example, in a 96-well non-treated round-bottom plate, 3 μL of compound was serially diluted in 6 μL of DMSO.
b. Each concentration point of each compound was diluted 500-fold in the corresponding volume of 1640 medium.
c. 50 μL of diluted compound solution was added to the cell supernatant (50 μL/well) in each cell plate.
d. After the addition, the cell plates were incubated in a 37° C., 5% carbon dioxide incubator.
3. The Cells were Re-Digested and Plated, and the Compounds were Added (Day 7).
a. Six days after the addition, the compound-containing medium was discarded. Then the cells were rinsed with DPBS (150 μL/well), and the DPBS was immediately pipetted off.
b. The cells were digested with 50 μL of trypsin and left to stand at 37° C. for 3 min, and then the digestion was stopped with 1640 medium containing 10% FBS (150 μL/well).
c. The cells were well mixed using a pipette and re-plated at a ratio of 1:8; that is, 25 μL of cell suspension was pipetted into a new 96-well plate (25 μL of 1640 medium containing 10% FBS had been added to the new plate in advance).
d. Compound solution preparation and addition (50 μL/well) were performed according to steps a to c in 2.
e. After the addition, the cell plates were incubated in a 37° C., 5% carbon dioxide incubator.
a. CellTiter-Glo buffer and lyophilized CellTiter-Glo substrate were equilibrated to room temperature before use and were well mixed to prepare a 100-mL CellTiter-Glo reagent (or a prepared CellTiter-Glo reagent was removed from a −20° C. freezer and equilibrated to room temperature).
b. The plates to be tested were removed from the incubator and equilibrated to room temperature, and the CellTiter-Glo reagent was added at 50 μL/well.
c. The plates were shaken for 2 min so that the cells were completely lysed.
d. After the plates were left to stand at room temperature for 28 min and signals were stable, the plates were tested on PHERAstar FS.

Row | Structure (SMILES) | IC50 [nM] | Emax [%]
1 | COc1cccc(OC)c1S(=O)(=O)Nc1noc2cc(Cn3cccn3)c3c(c12)OCC3 [Compound 1, N-(4-((1H-pyrazol-1-yl)methyl)-2,3-dihydrobenzofuro[7,6-d]isoxazol-8-yl)-2,6-dimethoxybenzenesulfonamide] | 1.4 | 96
2 | COc1cccc(OC)c1S(=O)(=O)Nc1noc2cc(Cn3cccn3)c3c(c12)OCCC3 [Compound 2, N-(5-((1H-pyrazol-1-yl)methyl)-3,4-dihydro-2H-chromeno[8,7-d]isoxazol-9-yl)-2,6-dimethoxybenzenesulfonamide] | 0.4 | 96
3 | COc1ccccc1S(=O)(=O)Nc1noc2cc(Cn3cccn3)c3c(c12)OCCC3 [Compound 3, N-(5-((1H-pyrazol-1-yl)methyl)-3,4-dihydro-2H-chromeno[8,7-d]isoxazol-9-yl)-2-methoxybenzenesulfonamide] | 1.9 | 95
4 | COc1cccc(OC)c1S(=O)(=O)Nc1noc2cc(Cn3cccn3)c3c(c12)OC(F)(F)O3 [Compound 5, N-(4-((1H-pyrazol-1-yl)methyl)-2,2-difluoro-[1,3]dioxolo[4′,5′:5,6]benzo[1,2-d]isoxazol-8-yl)-2,6-dimethoxybenzenesulfonamide] | 0.9 | 98
5 | CCOc1cc(C)ccc1S(=O)(=O)Nc1noc2cc(Cn3cccn3)c3c(c12)OCCC3 [Compound 7, N-(5-((1H-pyrazol-1-yl)methyl)-3,4-dihydro-2H-chromeno[8,7-d]isoxazol-9-yl)-2-ethoxy-4-methylbenzenesulfonamide] | 1.6 | 95.6
6 | Cc1ccc(S(=O)(=O)Nc2noc3cc(Cn4cccn4)c4c(c23)OCCC4)c(OCC(F)(F)F)c1 [Compound 8, N-(5-((1H-pyrazol-1-yl)methyl)-3,4-dihydro-2H-chromeno[8,7-d]isoxazol-9-yl)-4-methyl-2-(2,2,2-trifluoroethoxy)benzenesulfonamide] | 2.6 | 96.3
7 | COc1ccc(F)cc1S(=O)(=O)Nc1noc2cc(Cn3cccn3)c3c(c12)OCCC3 [Compound 9, N-(5-((1H-pyrazol-1-yl)methyl)-3,4-dihydro-2H-chromeno[8,7-d]isoxazol-9-yl)-5-fluoro-2-methoxybenzenesulfonamide] | 1.6 | 96.2
8 | COc1cccc(OC(F)(F)F)c1S(=O)(=O)Nc1noc2cc(Cn3cccn3)c3c(c12)OCCC3 [Compound 10, N-(5-((1H-pyrazol-1-yl)methyl)-3,4-dihydro-2H-chromeno[8,7-d]isoxazol-9-yl)-2-methoxy-6-(trifluoromethoxy)benzenesulfonamide] | 2.95 | 94.1
9 | COc1ccccc1S(=O)(=O)Nc1noc2cc(Cn3cccn3)c3c(c12)OCC3 [Compound 20, N-(4-((1H-pyrazol-1-yl)methyl)-2,3-dihydrobenzofuro[7,6-d]isoxazol-8-yl)-2-methoxybenzenesulfonamide] | 8.6 | 94.9
10 | COc1cccc(OC(F)(F)F)c1S(=O)(=O)Nc1noc2cc(Cn3cccn3)c3c(c12)OCC3 [Compound 23, N-(4-((1H-pyrazol-1-yl)methyl)-2,3-dihydrobenzofuro[7,6-d]isoxazol-8-yl)-2-methoxy-6-(trifluoromethoxy)benzenesulfonamide] | 10.9 | 90.8
